Measurements from the OligoGym collection.
Bases are written 5' to 3'; sugars and linkages follow in the same order, as letters with counts (s phosphorothioate, o phosphodiester; PS: all linkages phosphorothioate). C may stand for cytosine or 5-methylcytosine; the collection does not tell. l = locked nucleic acid (LNA); d = 2'-deoxy (DNA)

Target: HIF1A
Assay: HeLa, 100 nM transfected, 24 h, mean of 3
Conditions: ASO

| Sequence | caspase activation (% of PBS control) |
| --- | --- |
| GTTACTGCCTTCTTAC (sugars l4 d7 l1 d3 l1, PS) | 250 |
| TGGCAAGCATCCTGTA (sugars l4 d11 l1, PS) | 422 |
| TGGCAAGCATCCTGTA (sugars l2 d9 l3 d1 l1, PS) | 352 |
| TGGCAAGCATCCTGTA (sugars ldlddddddddldddl, PS) | 160 |
| GTTACTGCCTTCTTAC (sugars lddlddddddddlldl, PS) | 177 |
| GGCAAGCATCCTG (sugars lldlddddddldl, PS) | 334 |
| TGGCAAGCATCCTGTA (sugars l1 d12 l3, PS) | 217 |
| GTTACTGCCTTCTTAC (sugars ldldldddddddlddl, PS) | 220 |
| TGGCAAGCATCCT (sugars ldldddddddldl, PS) | 170 |
| GTTACTGCCTTCTTAC (sugars llldlddddddllddl, PS) | 308 |
| GTTACTGCCTTCTTAC (sugars ldlddddddddlldll, PS) | 135 |
| GTTACTGCCTTCTTAC (sugars ldldlddddddddddl, PS) | 175 |
| ACTGCCTTCTTAC (sugars lddlddddddldl, PS) | 118 |
| TGGCAAGCATCCTGTA (sugars l2 d1 l2 d9 l2, PS) | 419 |
| TGGCAAGCATCCTGTA (sugars l1 d1 l2 d11 l1, PS) | 324 |
| TTACTGCCTTCTT (sugars l4 d7 l2, PS) | 337 |
| GTTACTGCCTTCTTAC (sugars l5 d6 l2 d2 l1, PS) | 492 |
| TGGCAAGCATCCTGTA (sugars l1 d10 l5, PS) | 480 |
| GTTACTGCCTTCTTAC (sugars ldldldddddddddll, PS) | 151 |
| TGGCAAGCATCCTGTA (sugars l4 d9 l3, PS) | 412 |
| TGGCAAGCATCCTGTA (sugars l2 d2 l1 d7 l4, PS) | 366 |
| GTTACTGCCTTCTTAC (sugars llddlddddddllddl, PS) | 231 |
| TGGCAAGCATCCTGTA (sugars ldldldddddddllll, PS) | 309 |
| TACTGCCTTCTTA (sugars l1 d9 l3, PS) | 158 |

| Sequence | caspase activation (% of PBS control) |
| --- | --- |
| TGGCAAGCATCCTGTA (sugars ldllddddddddlddl, PS) | 438 |
| GTTACTGCCTTCTTAC (sugars lllllddddddldldl, PS) | 467 |
| TGGCAAGCATCCT (sugars l4 d8 l1, PS) | 471 |
| GTTACTGCCTTCTTAC (sugars ldllddddddddldll, PS) | 181 |
| TGGCAAGCATCCTGTA (sugars llddlddddddldlll, PS) | 425 |
| TGGCAAGCATCCTGTA (sugars l1 d1 l2 d8 l4, PS) | 398 |
| GTTACTGCCTTCTTAC (sugars l2 d1 l2 d8 l3, PS) | 318 |
| TGGCAAGCATCCTGTA (sugars ldlllddddddddldl, PS) | 448 |
| GTTACTGCCTTCT (sugars l4 d8 l1, PS) | 142 |
| GTTACTGCCTTCTTAC (sugars l1 d2 l2 d9 l2, PS) | 149 |
| TGGCAAGCATCCTGTA (sugars l3 d8 l1 d1 l3, PS) | 477 |
| GTTACTGCCTTCTTAC (sugars l3 d9 l2 d1 l1, PS) | 202 |
| CAAGCATCCTGTA (sugars ldllddddddldl, PS) | 130 |
| CAAGCATCCTGTA (sugars l1 d2 l1 d7 l2, PS) | 107 |
| TGGCAAGCATCCTGTA (sugars l2 d11 l3, PS) | 365 |
| TGGCAAGCATCCTGTA (sugars llddlddddddldldl, PS) | 390 |
| GTTACTGCCTTCTTAC (sugars l1 d1 l2 d8 l4, PS) | 200 |
| CAAGCATCCTGTA (sugars l1 d2 l1 d6 l3, PS) | 97 |
| TGGCAAGCATCCTGTA (sugars ldldlddddddlldll, PS) | 263 |
| GTTACTGCCTTCTTAC (sugars lllddddddddldldl, PS) | 233 |
| TGGCAAGCATCCT (sugars l2 d1 l1 d7 l2, PS) | 361 |
| GTTACTGCCTTCTTAC (sugars ldldlddddddldlll, PS) | 231 |
| GTTACTGCCTTCTTAC (sugars l1 d2 l1 d9 l3, PS) | 131 |
| TGGCAAGCATCCTGTA (sugars l1 d2 l2 d8 l3, PS) | 419 |

| Sequence | caspase activation (% of PBS control) |
| --- | --- |
| TGGCAAGCATCCTGTA (sugars lldldddddddlddll, PS) | 460 |
| GTTACTGCCTTCTTAC (sugars llddldddddddlddl, PS) | 197 |
| GTTACTGCCTTCTTAC (sugars l1 d2 l1 d7 l5, PS) | 268 |
| GCAAGCATCCTGT (sugars l1 d2 l1 d6 l3, PS) | 154 |
| GTTACTGCCTTCTTAC (sugars lldlddddddddlldl, PS) | 187 |
| GTTACTGCCTTCTTAC (sugars l2 d9 l1 d3 l1, PS) | 107 |
| CAAGCATCCTGTA (sugars lldlddddddldl, PS) | 142 |
| GTTACTGCCTTCTTAC (sugars llddlddddddlddll, PS) | 193 |
| GTTACTGCCTTCTTAC (sugars l3 d1 l1 d8 l3, PS) | 264 |
| TGGCAAGCATCCTGTA (sugars ldldlddddddldddl, PS) | 179 |
| GTTACTGCCTTCTTAC (sugars ldlldddddddldldl, PS) | 187 |
| GTTACTGCCTTCTTAC (sugars l2 d1 l1 d10 l2, PS) | 97.3 |
| GGCAAGCATCCTG (sugars l1 d10 l2, PS) | 394 |
| TGGCAAGCATCCTGTA (sugars llldldddddddldll, PS) | 367 |
| TGGCAAGCATCCTGTA (sugars l2 d10 l4, PS) | 346 |
| TGGCAAGCATCCTGTA (sugars llddldddddddldll, PS) | 401 |
| GTTACTGCCTTCTTAC (sugars lldddddddddldldl, PS) | 144 |
| GTTACTGCCTTCTTAC (sugars lddldddddddlldll, PS) | 151 |
| GTTACTGCCTTCTTAC (sugars lddldddddddddldl, PS) | 121 |
| TGGCAAGCATCCT (sugars lddlddddddldl, PS) | 132 |
| GTTACTGCCTTCTTAC (sugars l2 d9 l2 d2 l1, PS) | 199 |
| TGGCAAGCATCCTGTA (sugars ldllldddddddldll, PS) | 459 |
| GTTACTGCCTTCTTAC (sugars ldlllddddddlddll, PS) | 425 |
